Measurements reported in US20110183969A1, “ANTIFUNGAL COMBINATION THERAPY” (priority 2008, published 2011).
Values after ≈ are worked out from the molar mass of the structure shown. Where two headings read alike, the source gives them in different places.

Key:
Type in all cases: cell-based
Fusarium solani FS2 = experiment: 24 hr Fusarium solani MIC (RPMI medium, FS2); settings: banded into grades
Experimental: Between 1 and 5 mgs of compound were accurately weighed out into a sterile Eppendorf tube. The compound was dissolved in DMSO to give a solution containing 5 mg/mL. Tubes were stored at −20° C. until required.
On the day of testing thawed solutions were vortex mixed to ensure homogeneity. 30 μL of solution was removed and added to 570 μL of sterile water in a separate sterile Eppendorf The thoroughly mixed solution was used to prepare a series of doubling dilutions in water, in a deep well plate. […] replicate plates were prepared using a Minitrak by aspirating 20 μL from each well into eleven clear polystyrene 96 well plates.
Spores of Aspergillus spp. (Aspergillus fumigatus [two strains], Aspergillus terreus [two strains], Aspergillus niger and Aspergillus flavus) were harvested from cultures grown on Sabarauds agar for 5 days, and resuspended in PBS/Tween 80 to approx 1×10^7 cfu/mL. Other filamentous fungi (Absidia corymbifera, Fusarium solani, Rhizomucor, Scedosporium spp., Trichophyton spp.), were grown on Sabarauds agar for 2-10 days and spores/hyphae resuspended in PBS/Tween to give approx 1×10^7 cfu/mL. Candida species (Candida albicans, Candida glabrata, Candida krusei, Candida parapsilosis and Candida tropicalis) were grown on Sabarauds agar, cells were harvested from the agar using a sterile loop and resuspended in PBS/Tween 80 to approx 1×10^6 cfu/mL. Each organism suspension was diluted in RPMI medium, containing 2% glucose and 0.135 M MOPS buffer (pH 7.0) to 0.5−2×10^4 cfu/mL for Aspergillus spp. and other filamentous fungi and 0.5-2×10^3 cfu/mL for yeast. 80 μL of an organism suspension was added to each well of the plate containing drug dilutions.
This produced MIC plates with a drug range 50-0.05 mg/L and organism inocula of 1-2×10^4 cfu/mL for Aspergillus spp. and other filamentous fungi and 1-2×10^3 cfu/mL for yeasts. All plates were incubated for 24-48 hrs at 35° C. Growth was assessed by monitoring the optical density at 485 nm for each well. The MIC of a compound is the lowest drug concentration that inhibits growth of an organism by >80% compared with a drug free control. MICs are recorded as mg/L. Other growth media can be used for susceptibility testing, and the activity of the described compounds can also be assessed in a medium comprising 1% glucose, 1% ammonium chloride and 0.5% yeast extract (YAG medium). To perform MIC tests in this medium, dilutions of compounds are prepared in microtitre plates as described above. Fungal strains to be tested are grown and harvested in an identical manner to that described above, each organism suspension is then diluted in YAG medium to 0.5-2×10^4 cfu/mL for Aspergillus spp. and other filamentous fungi and 0.5-2×10^3 cfu/mL for yeast. 80 μL of an organism suspension was added to each well of the plate containing drug dilutions. This produced MIC plates with a drug range 50-0.05 mg/L and organism inocula of 1-2×10^4 cfu/mL for Aspergillus spp. and other filamentous fungi and 1-2×10^3 cfu/mL for yeasts. All plates were incubated for 24 hrs at 35° C. Growth was assessed by monitoring the optical density at 485 nm for each well. The MIC of a compound is the lowest drug concentration that inhibits growth of an organism by >70% compared with a drug free control. MICs are recorded as mg/L. In cases where the MIC of an organism is […] mg/L the MIC is repeated using a concentration range of 0.5-0.0005 mg/L. MIC tests in YAG medium have more clear-cut endpoints and have slightly lower MICs than those performed in RPMI medium.
24 hr Fusarium solani MIC Results (RPMI Medium, FS2): […]

Aspergillus flavus = experiment: MIC (YAG medium); settings: YAG medium, MIC banded into grades; for MIC: Aspergillus flavus, read-out: MIC A. flavus (grade)
How it was run: (§1)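 OD 485 nm read-out after 24 h, 35° C; MIC = lowest concentration inhibiting growth >70% vs drug-free control, in mg/L. Medium YAG (1% glucose, 1% NH4Cl, 0.5% yeast extract); inoculum 1-2×10^4 cfu/mL; compound range 50-0.05 mg/L, repeated at 0.5-0.0005 mg/L […].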

[1] = test system: Aspergillus fumigatus AF210; experiment: MIC (YAG medium); settings: YAG medium, MIC banded into grades, AF210; for MIC: Aspergillus fumigatus, read-out: MIC A. fumigatus 210 (grade)
How it was run: as §1

[2] = test system: Aspergillus fumigatus AF293; experiment: MIC (YAG medium); settings: YAG medium, MIC banded into grades, AF293; for MIC: Aspergillus fumigatus, read-out: MIC A. fumigatus (grade)
How it was run: as §1

Aspergillus niger = experiment: MIC (YAG medium); settings: YAG medium, MIC banded into grades; for MIC: Aspergillus niger, read-out: MIC A. niger (grade)
How it was run: as §1

Aspergillus terreus AT49 = experiment: MIC (YAG medium); settings: YAG medium, MIC banded into grades, AT49; for MIC: Aspergillus terreus, read-out: MIC A. terreus 49 (grade)
How it was run: as §1

Aspergillus terreus AT4 = experiment: MIC (YAG medium); settings: YAG medium, MIC banded into grades, AT4; for MIC: Aspergillus terreus, read-out: MIC A. terreus (grade)
How it was run: as §1

Compound	MIC (Fusarium solani FS2; read-out: MIC)	MIC (Aspergillus flavus)	MIC [1]	MIC [2]	MIC (Aspergillus niger)	MIC (Aspergillus terreus AT49)	MIC (Aspergillus terreus AT4)	MIC (Fusarium solani FS2)	MIC A. flavus (grade) (Aspergillus flavus)	MIC A. fumigatus 210 (grade) [1]	MIC A. fumigatus (grade) [2]	MIC A. niger (grade) (Aspergillus niger)	MIC A. terreus 49 (grade) (Aspergillus terreus AT49)	MIC A. terreus (grade) (Aspergillus terreus AT4)
CON=C1CCN(c2ccc(NC(=O)C(=O)c3c(-c4ccccc4)cc4ccccn34)cc2)CC1 [Example 2, N-[4-(4-methoxyimino-piperidin-1-yl)-phenyl]-2-oxo-2-(2-phenyl-indolizin-3-yl)-acetamide]	< 1 µg/mL	< 1 µg/mL	< 1 µg/mL	< 1 µg/mL	< 1 µg/mL	< 1 µg/mL	< 1 µg/mL							
C=C1CCN(c2ccc(NC(=O)C(=O)c3c(-c4ccccc4)cc4ccccn34)cc2)CC1 [Example 3, N-[4-(4-methylene-piperidin-1-yl)-phenyl]-2-oxo-2-(2-phenyl-indolizin-3yl) acetamide]								3 (A grade of 3 represents an MIC of less than 1 mg/L)	3 (A grade of 3 represents an MIC of less than 1 mg/L)	3 (A grade of 3 represents an MIC of less than 1 mg/L)	3 (A grade of 3 represents an MIC of less than 1 mg/L)	3 (A grade of 3 represents an MIC of less than 1 mg/L)	3 (A grade of 3 represents an MIC of less than 1 mg/L)	3 (A grade of 3 represents an MIC of less than 1 mg/L)
CC(C)c1cc(NC(=O)C(=O)c2c(-c3ccccc3)cc3ccccn23)ccc1C(=O)OCCn1ccnc1C(C)C [Example 13, 2-Isopropyl-4-[2-oxo-2-(2-phenyl-indolizin-3-yl)-acetylamino]-benzoic acid 2-(2-isopropyl-imidazol-1-yl)-ethyl ester]	1 to 10 µg/mL (≈ 1.78 to 17.8 µM)	< 1 µg/mL	1 to 10 µg/mL (≈ 1.78 to 17.8 µM)	< 1 µg/mL	> 10 µg/mL	< 1 µg/mL	1 to 10 µg/mL (≈ 1.78 to 17.8 µM)							
O=C(Nc1ccc(N2CCC3(CC2)OCCO3)cc1)C(=O)c1c(-c2ccccc2)cc2ccccn12 [Example 23, N-[4-(1,4-dioxa-8-aza-spiro[4.5]dec-8-yl)-phenyl}-2-oxo-2-(2-phenyl-indolizine-3-yl)-acetamide]	< 1 µg/mL	< 1 µg/mL	< 1 µg/mL	< 1 µg/mL	< 1 µg/mL	< 1 µg/mL	< 1 µg/mL							
CC1CN(C2CCN(c3ccc(NC(=O)C(=O)c4c(-c5ccccc5)cc5ccccn45)cc3)CC2)CC(C)O1 (centres unmarked) [Example 24, N-{4-[4-(2,6-Dimethyl-morpholin-4-yl)-piperidin-1-yl]-phenyl}-2-oxo-2-(2-phenyl-indolizin-3-yl)-acetamide]	1 to 10 µg/mL (≈ 1.86 to 18.6 µM)	< 1 µg/mL	< 1 µg/mL	< 1 µg/mL	< 1 µg/mL	< 1 µg/mL	< 1 µg/mL							
Cc1cc(C)nc(CNc2ccc(NC(=O)C(=O)c3c(-c4ccccc4)cc4ccccn34)cc2)c1 [Example 91, N-{4-[(4,6-Dimethyl-pyridin-2-ylmethyl)-amino]-phenyl}-2-oxo-2-(2-phenyl-indolizin-3-yl)-acetamide]		< 1 µg/mL	< 1 µg/mL	< 1 µg/mL	< 1 µg/mL	< 1 µg/mL	< 1 µg/mL							
Cc1cc(C)nc(NCCNc2ccc(NC(=O)C(=O)c3c(-c4ccccc4)cc4ccccn34)cc2)c1 [Example 92, N-{4-[2-(4,6-dimethyl-pyridin-2-yl-amino)-ethylamino]-phenyl}-2-oxo-2-(2-phenyl-indolizin-3-yl)-acetamide]		< 1 µg/mL	< 1 µg/mL	< 1 µg/mL	1 to 10 µg/mL (≈ 1.99 to 19.9 µM)	< 1 µg/mL	< 1 µg/mL							
N-(4-{3-[(4,6-Dimethyl-pyridin-2-yl)-methyl-amino]-propyl}-phenyl)-2-oxo-2-(2-phenyl-indolizin-3-yl)-acetamide [Example 70]									3 (A grade of 3 represents an MIC of less than 1 mg/L)	3 (A grade of 3 represents an MIC of less than 1 mg/L)	3 (A grade of 3 represents an MIC of less than 1 mg/L)	3 (A grade of 3 represents an MIC of less than 1 mg/L)	3 (A grade of 3 represents an MIC of less than 1 mg/L)	3 (A grade of 3 represents an MIC of less than 1 mg/L)
N-[4-(3-Ethyl-1H-imidazol-2yl methyl)-phenyl]-2-oxo-2-(2-o-tolyl-indolizin-3yl)-acetamide [Example 30]									1 (a grade of 1 represents an MIC of greater than 10 mg/L)	1 (a grade of 1 represents an MIC of greater than 10 mg/L)	1 (a grade of 1 represents an MIC of greater than 10 mg/L)	1 (a grade of 1 represents an MIC of greater than 10 mg/L)	1 (a grade of 1 represents an MIC of greater than 10 mg/L)	1 (a grade of 1 represents an MIC of greater than 10 mg/L)
N-{4-[4-(2,6-Dimethyl-pyrimidin-4-yl)-piperazin-1-yl]-phenyl}-2-(2-phenyl-indolizin-3-yl)-acetamide [Example 45]									3 (A grade of 3 represents an MIC of less than 1 mg/L)	3 (A grade of 3 represents an MIC of less than 1 mg/L)	3 (A grade of 3 represents an MIC of less than 1 mg/L)	2 (A grade of 2 represents an MIC of from 1 to 10)	3 (A grade of 3 represents an MIC of less than 1 mg/L)	3 (A grade of 3 represents an MIC of less than 1 mg/L)
